“Also recorded” adds a separate entry of the source. Read-outs that look alike come from different tables or passages of the source.
Key:
[1] = system: CHO cells expressing human APP; assay: Secreted Aβ40/Aβ42 ELISA in medium of CHO-APP cells; type: cell-based, Chinese hamster; parameters: key to Aβ42-lowering activity: Aβ42-lowering activity (“Yes”); no profound effects (“No”); non-determined (“ND”); Ginsenosides that affected cell viability are indicated as “Cytotoxic.”; conditions: for Aβ42-lowering activity: Tables 1-3; for secretion of Aβ42 (initial screening): heat-processing derived ginsenosides; for production of Aβ42 in cells (summary statement): mammalian cells, in vitro; for Aβ42 in the medium, dose-dependence: CHO cells expressing human APP; for generation of Aβ42 (Aβ42 levels in the medium, ELISA, normalized to intracellular full-length APP): CHO cells stably transfected with human APP695, 50 μg/ml, 8 hrs; for Aβ42 vs. Aβ40 in the medium (preference): normalized to non-treated and vehicle-treated cells
Description: The CHO cells were treated with the indicated compounds (at 50 μg/ml) for 8 hrs. Aβ42 levels in the medium were measured by ELISA and normalized to intracellular full-length APP.
The potential effects of ginsenosides and their analogues in treating AD were examined. First, a number of ginsenosides were screened based on their effects on Aβ generation. The effects of various ginsenosides on Aβ (e.g., Aβ40 and Aβ42) production was initially accessed by incubating the Chinese hamster ovary (CHO) cells expressing human APP(CHO-APP cells) with each ginsenoside purified from unprocessed ginseng (known as “white ginseng”). These representative ginsenosides included Rb1, Rb2, Rc, Rd, Re, Re, Rg1 and Rg2 and differ in their side chains and sugar moieties.
After 8 hours of incubation, the media were collected and the levels of secreted Aβ40 and Aβ42 were determined by ELISA.
Steaming ginseng at high temperature gave rise to additional ginsenosides with enhanced pharmacological activity, including (20S)Rg3, Rk1 and Rg5 (22-25). Next, the effects of these heat-processing derived ginsenosides (e.g., (20S)Rg3, Rh1, Rh2, Rk1, Rg6, Rg5) on Aβ40 and Aβ42 generation were tested. […] In contrast, Aβ42 levels were not affected by (20R)Rg3, Rh1, and Rg6. Aβ40 levels were not changed by treatment with any of the ginsenosides tested. The potency of Aβ42-lowering activity was highest with Rk1 and (20S)Rg3. […] The secretion of Aβ40 was affected by treatment with Rk1 only at very high concentration (˜100 μM) and cell viability was not affected by treatment of Rk1 under these conditions (up to 100 μM, 8 hour treatment; data not shown). […] Overnight treatment with Rgk351, Rk1, and Rg5 also reduce Aβ42 production in CHO-APP cells (FIG. 12B). […] These studies provide a structure-activity relationship between the chemical structures of ginsenosides and Aβ42-lowering activity, further providing the basis for designing additional Aβ42-lowering analogues as well as for defining a class of compounds that harbor Aβ42-lowering activity.

[2] = system: CHO-APP/PS1 cells; assay: Secreted Aβ40/Aβ42 ELISA in CHO-APP/PS1 cells; type: cell-based, Chinese hamster; conditions: for Aβ42 levels: CHO cells co-expressing human APP with wild-type PS1 or FAD mutant PS1 (delta E9, L286V)
Description: (§1) FIG. 10 depicts the effects of native ginsenosides on Aβ42 production. CHO cells stably transfected with human APP695 together with either wild-type (A, CHO-APP/PS1 cells) or ΔE9 FAD mutant (B, CHO-APP/ΔE9PS1 cells) forms of PS1 were used. Cells were treated with the indicated compounds (at 50 μM) for 8 hrs. Levels of secreted Aβ40 and Aβ42 in the medium were determined by ELISA and normalized to intracellular full-length APP. In CHO-APP/PS1 cells, average Aβ amounts in control samples were 320 pM for Aβ40 and 79 pM for Aβ42. The relative levels of Aβ and Aβ42 were normalized to values obtained from non-treated and vehicle-treated cells and are shown as % to control+s.d.). One of three representative experiments are shown.
(§2) CHO-APP/PS1 (A) and CHO-APP/ΔE9PS1 (B) cells were treated with the indicated compounds at 50 μM for 8 hrs and the levels of secreted Aβ40 and Aβ42 were determined as described in FIG. 1. […] The PS1-ΔE9 FAD mutation diminished the Aβ42 response to Rk1 treatment (B).

[3] = system: CHO-APP/ΔE9PS1 cells; assay: Secreted Aβ40/Aβ42 ELISA in CHO-APP/ΔE9PS1 cells; type: cell-based, Chinese hamster; conditions: 50 μM, 8 hrs
Description: as §1, §2
Steaming ginseng at high temperature gave rise to additional ginsenosides with enhanced pharmacological activity, including (20S)Rg3, Rk1 and Rg5 (22-25). Next, the effects of these heat-processing derived ginsenosides (e.g., (20S)Rg3, Rh1, Rh2, Rk1, Rg6, Rg5) on Aβ40 and Aβ42 generation were tested. […] In contrast, Aβ42 levels were not affected by (20R)Rg3, Rh1, and Rg6. Aβ40 levels were not changed by treatment with any of the ginsenosides tested. The potency of Aβ42-lowering activity was highest with Rk1 and (20S)Rg3. […] The secretion of Aβ40 was affected by treatment with Rk1 only at very high concentration (˜100 μM) and cell viability was not affected by treatment of Rk1 under these conditions (up to 100 μM, 8 hour treatment; data not shown). […] Overnight treatment with Rgk351, Rk1, and Rg5 also reduce Aβ42 production in CHO-APP cells (FIG. 12B). […]

[4] = system: γ-secretase; assay: Cell-free γ-secretase assay (CHAPSO-solubilized membrane fractions, Aβ ELISA); type: biochemical; conditions: for Aβ40 and Aβ42 generation in cell-free γ-secretase assay: dose-response
Description: (A) CHAPSO-solubilized membrane fractions were incubated with recombinant γ-secretase substrates together with the indicated compounds (at 100 μM) and the levels of Aβ42 and Aβ40 were determined by ELISA as described (27-29). (B) Dose-response of Aβ40 and Aβ42-lowering activity of Rk1 and (20S)Rg3 in a cell-free γ-secretase assay.
Next, the inhibitory effects of Rk1 and (20S)Rg3 on Aβ generation in an in vitro γ-secretase assay was studied. […] In contrast, naproxen, an NSAID without Aβ42-lowering activity, had no effects on Aβ42 production (FIG. 15A).

[5] = system: CHO-APP cells; assay: Mass spectrometric analysis of Aβ species from CHO-APP cells; type: cell-based, Chinese hamster; conditions: mass spectrometry, vs DMSO
Description: Note that treatment leads to a decrease in Aβ42 species (1-42), and elevation in both Aβ37 (1-37) and Aβ38 (1-38). Mass spectrometric analysis of Aβ species were performed as previously described (Wang R, Sweeny D, Gandy S E, Sisodia S S. The profile of soluble amyloid β-protein in cultured cell media. J. Bio. Chem. 1996; 271: 31894-31902).

[6] = system: primary embryonic cortical neurons derived from Tg2576 transgenic mice; assay: Aβ40 and Aβ42 secretion in primary embryonic cortical neurons; type: cell-based
From the text: Treatment of Rk1 and Rg3 decreased the level of secreted Aβ40 and Aβ42.

[7] = system: APP; assay: Western blot of APP processing in CHO-APP and Neuro2a-APPsw cells; type: cell-based, Chinese hamster and mouse; conditions: cell lysates; for APP C-terminal fragments (γ-secretase substrates): CHO-APP and Neuro2a APPsw cells
From the text: FIG. 13. depicts an analysis of APP processing after Rk1 treatment. Steady-state levels of full-length APP and APP C-terminal fragments (APP-CTFs) were examined by Western blot analysis using anti-R1 antibody. […] Correlated Aβ42 levels for each sample are shown in the bottom panel.

[8] = system: CHO cells; assay: Cell viability of treated CHO cells; type: cell-based, Chinese hamster
Description: as §2
Tables 1-3 Structure of ginsenosides utilized in the study and their effects on Aβ42 generation. They differ at the two or three side chains attached to the common triterpene backbone known as dammarane. The common structure skeleton for each group of ginsenosides is shown in the top panel. Ginsenosides that harbor Aβ42-lowering activity are indicated in the far right column of the tables: Aβ42-lowering activity (“Yes”), no profound effects (“No”), and non-determined (“ND”). Ginsenosides that affected cell viability are indicated as “Cytotoxic.” Abbreviation for carbohydrates are as follows: Glc, D-glucopyranosyl; Ara (pyr), L-arabinopyranosyl; Ara (fur), L-arabinofuranyosyl; Rha, L-rhamnopyranosyl.
Steaming ginseng at high temperature gave rise to additional ginsenosides with enhanced pharmacological activity, including (20S)Rg3, Rk1 and Rg5 (22-25). Next, the effects of these heat-processing derived ginsenosides (e.g., (20S)Rg3, Rh1, Rh2, Rk1, Rg6, Rg5) on Aβ40 and Aβ42 generation were tested. […] In contrast, Aβ42 levels were not affected by (20R)Rg3, Rh1, and Rg6. […]

[9] = system: γ-secretase; assay: Cell-free generation of intracellular domains (AICD, NICD, p75-ICD) in membrane fractions of 293 cells; type: biochemical; conditions: membrane fractions from 293 cells overexpressing APP, Notch-ΔE or p75-ΔE
Description: Membrane fractions isolated from 293 cells overexpressing either APP (A), Notch-ΔE (B) or p75-ΔE (C) and incubated in the presence of indicated compounds: Compound E (CpdE, general γ-secretase inhibitor), Rgk351, Rk1 and sulindac sulfide (SS).
Since the effect of Rk1 was rather selective to Aβ42 (but not Aβ40) in a cell-based assay, the question of whether Rk1 affects other γ-secretase-mediated cleavage events, including the generation of AICD resulted from a transmembrane cleavage of APP distal from either Aβ40 or Aβ42 site, and γ-secretase-mediated intramembrane cleavage of Notch1 or p75 neurotrophin receptor (p75NTR) to yield Notch1 or p75NTR intracellular domains (NICD or p75-ICD, respectively) was tested. The cell-free generation of AICD, NICD and p75-ICD was not affected by incubation with Rgk351 or Rk1 (FIG. 5).

[10] = cell-free γ-secretase assay, read-out: IC50 for Aβ40
[11] = cell-free γ-secretase assay, read-out: IC50 for Aβ42
[12] = overnight treatment, CHO-APP cells

Row | Structure (SMILES) | potency of Aβ42-lowering activity (comparison among ginsenosides) [1] | Aβ42-lowering activity [1] | secretion of Aβ42 (initial screening) [1] | production of Aβ42 in cells (summary statement) [1] | potency of Aβ42-reducing activity (order) ([2]; 50 μM, 8 hrs) | Aβ42-lowering response in PS1 ΔE9 FAD mutant cells vs PS1 wild-type cells [3] | IC50 [4, 10] [µM] | IC50 [4, 11] [µM] | Aβ40 and Aβ42 generation in cell-free γ-secretase assay [4] | Aβ37 (1-37) and Aβ38 (1-38) [5] | Aβ42 species (1-42) [5] | level of secreted Aβ40 and Aβ42 [6] | Aβ42 in the medium, dose-dependence [1] | generation of Aβ42 (Aβ42 levels in the medium, ELISA, normalized to intracellular full-length APP) [1] | Aβ42 vs. Aβ40 in the medium (preference) ([1]; CHO-APP cells) | Aβ42 production [1, 12] | Aβ42 levels [2] | full-length APP levels [7] | APP C-terminal fragments (γ-secretase substrates) [7] | other results
1 | CC(C)=CCC[C@](C)(O)[C@H]1CC[C@]2(C)[C@@H]1[C@H](O)C[C@@H]1[C@@]3(C)CC[C@H](O[C@@H]4O[C@H](CO)[C@@H](O)[C@H](O)[C@H]4O[C@@H]4O[C@H](CO)[C@@H](O)[C@H](O)[C@H]4O)C(C)(C)[C@@H]3CC[C@]12C [(20S)Rg3] | highest | Yes | selectively lowered | lower | Rk1>/=(20S)Rg3>Rg5>(20R)Rg3 | diminished | 27 ± 4 | 26 ± 7 | inhibits; also recorded: inhibited both Aβ40 and Aβ42 with a similar potency | elevation | decrease | decreased | – | – | – | – | – | – | – | –
2 | CC(C)=CC/C=C(\C)[C@H]1CC[C@]2(C)[C@@H]1[C@H](O)C[C@@H]1[C@@]3(C)CC[C@H](O[C@@H]4O[C@H](CO)[C@@H](O)[C@H](O)[C@H]4O[C@@H]4O[C@H](CO)[C@@H](O)[C@H](O)[C@H]4O)C(C)(C)[C@@H]3CC[C@]12C [Rg5] | much smaller as compared to Rgk351 and Rk1; also recorded: less effective | Yes | selectively lowered | lower | Rk1>/=(20S)Rg3>Rg5>(20R)Rg3 | diminished | – | – | – | – | – | – | reduced; also recorded: lower Aβ42 in a dose-dependent manner | reduce | preferentially reduced Aβ42 (vs. Aβ40) | reduce | much smaller as compared to Rgk351 and Rk1 | not affected | increased accumulation | –
3 | CC(C)=CCC[C@](C)(O)[C@H]1CC[C@]2(C)[C@@H]1[C@H](O)C[C@@H]1[C@@]3(C)CC[C@H](O[C@@H]4O[C@H](CO)[C@@H](O)[C@H](O)[C@H]4O)C(C)(C)[C@@H]3CC[C@]12C [Rh2] | – | – | – | – | – | – | – | – | – | – | – | – | – | – | – | – | – | – | – | Aβ42-lowering effects ([2]; 50 μM, 8 hrs): exhibited Aβ42-lowering effects; cell viability ([8]; 50 μM treatment): partially affected
4 | C=C(CCC=C(C)C)[C@H]1CC[C@]2(C)[C@@H]1[C@H](O)C[C@@H]1[C@@]3(C)CC[C@H](O[C@@H]4O[C@H](CO)[C@@H](O)[C@H](O)[C@H]4O[C@@H]4O[C@H](CO)[C@@H](O)[C@H](O)[C@H]4O)C(C)(C)[C@@H]3CC[C@]12C [Rk1] | most effective; also recorded: highest | Yes | selectively lowered | lower | Rk1>/=(20S)Rg3>Rg5>(20R)Rg3 | diminished | 27 ± 3 | 32 ± 5 | inhibits; also recorded: inhibited both Aβ40 and Aβ42 with a similar potency | elevation | decrease | decreased | reduced; also recorded: lower Aβ42 in a dose-dependent manner | reduce | preferentially reduced Aβ42 (vs. Aβ40); also recorded: preferentially lowers Aβ42 (vs. Aβ40) | reduce | reduced | not affected; also recorded: did not affect | increased accumulation; also recorded: up-regulated | concentration at which secretion of Aβ40 was affected ([1]; 8 hour treatment): ~100 µM; IC50 ([1]; CHO-APP cells, read-out: IC50 of Aβ42 lowering activity): ~20 µM; Aβ40 production [1, 12]: slightly affected; Aβ42 generation in vitro ([4]; cell-free γ-secretase assay, partially purified γ-secretase complex, 100 μM): inhibit; also recorded: potently inhibited; cell-free generation of AICD, NICD and p75-ICD [9]: does not significantly affect; also recorded: not affected; cell viability ([8]; up to 100 μM, 8 hour treatment): not affected
